Measured values taken from patent publication US6451307B1, “3′-exonuclease, production and use thereof” (Aventis Research & Technologies GmbH & Co. KG, priority 1998, dated 2002).
Entries after “also recorded” stand apart in the source; their conditions may differ.

Experiments:
Format in all cases: biochemical, bovine
[1] = system: poly(A)-specific 3′-exonuclease activity; test: Substrate specificity: Km and Vmax for homopolymer-tailed RNA substrates (Lineweaver-Burke plot); settings: Poly(A) Sepharose fraction; tail-labeled RNA substrates
Protocol: (§1) The test conditions for the in-vitro deadenylation were as follows: 1 mM MgCl2, 2.5% (w/v) poly(vinyl alcohol) (Sigma P-8136, Mw 10,000), 100 mM KCl, 0.15 Unit RNAguard, from 5 to 20 fmol of RNA substrate, from 20 to 48% (v/v) buffer (20 mM HEPES (KOH), 0.2 mM EDTA, 0.5 mM DTT, 25% glycerol, pH 7) and the appropriate protein fraction (Åström, J. et al. (1992), see above). The reaction volume was 15 or 25 μl and the incubations were carried out at 30° C. The reactions were then terminated and RNA was purified as described in Moore, C. L. & Sharpe, P. A. (1985), see above. The RNA was analyzed by electrophoresis in 10% polyacrylamide (19:1 acrylamide/bisacrylamide)—7 M urea gels, followed by autoradiography of the resulting gels.
(§2) The deadenylation activity was quantified as follows: L3(A30) RNA substrate, labeled with [α^32P]ATP, was incubated in an in-vitro deadenylation reaction. The reaction products were analyzed by 1D TLC using mobile solvent III (0.75 M K2HPO4, pH 3.5 (H3PO4)). The resulting PEI-Cellulose F plate was dried and scanned in a 400 S Phosphorimager (Molecular Dynamics). The fractions containing released [α^32P]AMP were determined. The quantity, in mol, of released AMP was calculated on the basis of the known specific activity of [α^32P]AMP in the RNA substrate. One unit of deadenylation activity corresponds to the release of 1 pmol of AMP/minute.
The RNA substrate specificity of the activity was investigated in two experiments. In a first experiment, the RNA substrates L3(A30), ML45(U30), ML40(C32) and ML43(G30), whose homopolymeric tails had been radioactively labeled, were incubated in an in-vitro deadenylation test (see above). The release of radioactive mononucleotides was measured in the 1D TLC test (see above). The measurement results were used to calculate the Km and Vmax values for each RNA substrate using the Lineweaver-Burke plot (see Table II). In a second experiment, the substrate specificity was measured by incubating RNA substrates containing internal poly(A) segments, followed by plasmid-encoded RNA sequences of increasing length, with Poly(A) Sepharose fractions in an in-vitro deadenylation test. […] It follows from this that RNA tails composed of adenosine residues are the preferred substrate and that only 3′ end-located poly(A) tails are effectively degraded.

[2] = system: poly(A)-specific 3′-exonuclease activity; test: Kinetics of the nuclease activity (time course, added poly(A)); settings: 20 minutes, 0.5 μl Poly(A) Sepharose fraction, L3(A30) RNA
Protocol: FIGS. 5A-C show the ongoing degradation of poly(A). The Poly(A) Sepharose fraction was incubated, under in-vitro deadenylation conditions, with X fmol of the L3(A30) RNA substrate which had been labeled with [α-^32P]UTP during in-vitro transcription. The reaction products were fractionated in a 10% polyacrylamide:bisacrylamide 19:1-7 M urea gel. S and P indicate the migration sites of the RNA substrate (S) and the product (P). […] The indicated quantities of poly(A) in ng were added to the reactions.
as §1, with “The reaction volume was 15 or 25 μl and the incubations were carried out at 30° C. The reactions were then terminated and RNA was purified as described in Moore, C. L. & Sharpe, P. A. (1985), see above.” left out
In order to determine whether the nuclease activity degrades RNA substrates in a progressive or distributive manner, the kinetics was first of all determined in an in-vitro deadenylation reaction in the presence of 0.5 μl of a Poly(A) Sepharose fraction and x fmol of L3(A30) RNA substrate which had been labeled overall. […]

[3] = system: poly(A)-specific 3′-exonuclease activity; test: Conditions for the in-vitro deadenylation: ions and spermidine (1D TLC); settings: for decrease of activity as compared with the activity in the presence of Mg2+: 1 mM divalent ion, L3(A30) RNA; for decrease of activity as compared with the activity in the presence of Mg2+ / influence on deadenylation activity: Poly(A) Sepharose fraction; for influence on deadenylation activity: tail-labeled L3(A30) RNA
Protocol: as §1, §2
The conditions for measuring poly(A) deadenylation activity in accordance with the above-described deadenylation test were determined using Poly(A) Sepharose fractions as the enzyme source and poly(A) tail-labeled L3(A30) RNA as the substrate. The activity was measured in terms of the release of the mononucleotides in the 1D TLC test (see above). The requirement of monovalent (potassium and sodium) and divalent (magnesium, manganese, zinc and calcium) ions for this was investigated.

Km [1] [µM] | Molecule | decrease of activity as compared with the activity in the presence of Mg2+ [3] [%] | influence on deadenylation activity [3] | other results
0.01 | poly(A) | – | – | effect of added poly(A) on the deadenylation reaction [2]: inhibits the reaction
– | [Mn+2] [Mn^2+] | 17 | also active in the presence of Mn^2+ | –
– | NCCCCNCCCN [spermidine] | – | no influence on the activity; also recorded: if anything, it is inhibited both at low and at high salt concentrations | –
– | [Zn+2] [Zn^2+] | 2 | – | –
0.007 | poly(G) | – | – | –
0.01 | poly(C) | – | – | –
– | [Ca+2] [Ca^2+] | 0.7 | – | –
0.02 | poly(U) | – | – | –
– | [Mg+2] [magnesium ions] | – | – | optimum concentration of ion for deadenylation activity [3]: 1 mM
– | [K+] [potassium ions] | – | activity is higher in the presence of potassium ions than in the presence of sodium ions | –
